# Laboratory results reported in patent publication US4748161A, “Triterpenyl esters of organic acids and hypolipidemic agents composed of them” (Amano Pharmaceutical Co., Ltd., priority 1984, dated 1988).
# Read-outs that look alike come from different tables or passages of the source.
# Legend:
# [1] = Body weight of rats in method B; design: species or system male Wistar strain rats; settings: rat, in vivo
# Protocol: (§1) Male Wistar strain rats (100±1 g, each 8 rats were formed into a group except that the control group fed with a hyperlipidemic diet was formed of 16 rats) were used as test animals. A powdery diet (CE-2, supplied by Clea Japan, Inc.) was used as ordinary diet. The hyperlipidemic diet was prepared by fortifying the ordinary diet with cholesterol (1%) and cholic acid (0.5%). Each test compound (1%) for administration was admixed with the hyperlipidemic diet. Each two rats were kept in a cage and given the prescribed diet and water ad libitum. Thus the rats were fed for 4 weeks at a constant temperature of 23±1° C. and a constant R.H. of 55±5%. Finally, the rats were fasted from food except water for 16 hours (from 4 p.m. of the 28th test day to 8 a.m. of the 29th test day), and under anesthesia with pentbarbital sodium (tradename: Nembutal), blood was taken from each rat through the descending abdominal arota. Then, TC, HDL-C, TG, PL, and LPO in the serum were measured in the following manner.
# [2] = tested on: serum lipids and serum lipid hydroperoxide; assay: Pharmacological test method B for anti-hyperlipidemic activity (serum lipids, 4 weeks feeding); type: in vivo, male Wistar strain rats; design: AI Diff.: unit not given here; settings: for AI [(TC - HDL-C)/(HDL-C)] / HDL-C in serum / LPO in serum / PL in serum / TC in serum / TG in serum: 1% in hyperlipidemic diet, 4 weeks; for change in vivo at 1 % in diet: Rattus norvegicus, po, 672 h; for TG % of diff. (Table 20) / TG Diff. (Table 20): Table 20, versus control group; for HDL-C rise compared with normal diet group: versus normal diet group
# Protocol: Pharmacological test method B for anti-hyperlipidemic acitivity (the term "method B" was used in the present specification)
# as §1
# A TC kit-K (supplied by Nippon Shoji Kaisha, Ltd.) was used. The principle of this determination is as follows: The ester of cholesterol in the serum is hydrolyzed with cholesterol-ester hydrolase into free cholesterol and fatty acids. All the free cholesterol is oxidized with cholesterol oxydase to form Δ^4 -cholestenone and hydrogen peroxide. Phenol and 4-aminoantipyrin are oxidatively condensed together by the formed hydrogen peroxide and peroxydase. The produced red quinone coloring matter is measured by colorimetry for absorbance at 500 nm using a spectrophotometer, thereby determining the TC:
# The color-developing liquid (3.0 ml) is well mixed with the sample serum (0.02 ml). The mixture once heated at 37° C. for 15 minutes, is measured for absorbance at 500 nm with a spectrophotometer. The found absorbance is denoted by EA. On the other hand, the color-developing liquid (3.0 ml) is well mixed with the standard solution. The mixture is treated and measured for absorbance at 500 nm in the same manner as the above. This found absorbance is denoted by ES. Both EA and ES are determined with reference to the value of the blank test conducted using the color-developing liquid (3.0 ml) alone. [formula]
# An HDL-C kit-N (supplied by Nippon Shoji Kaisha, Ltd.) was used. […] (VLDL) and lo density lipoprotein (LDL) in the serum is precipitated by the action of heparin. The precipitate is separated by centrifugation. High density lipoprotein (HDL) is dissolved in the separated supernatant. Esters of cholesterol in this fraction is hydrolyzed with cholesterol-ester hydrolase into free cholesterol and fatty acids. All the free cholesterol is oxidized with cholesterol oxydase to form Δ^4 -cholestenone and hydrogen peroxide. Phenol and 4-aminoantipyrine are oxidatively condensed together by the formed hydrogen peroxide and peroxydase. The produced red quinone coloring matter is measured by colorimetry for absorbance at 500 nm using a spectrophotometer, thereby determining the HDL-C.
# A PL kit-K (supplied by Nippon Shoji Kaisha, Ltd.) was used for the determination. Lecithin, sphingomyelin, and lysolecithin are decomposed by phospholipase D into choline and phosphatidic acid, N-acylsphingosyl phosphate, or lysophosphatidic acid, respectively. The resulting choline is quantitatively decomposed by choline oxydase into hydrogen peroxide and betaine. With this hydrogen peroxide, and aid of peroxydase, phenol and 4-aminoantipyrin are condensed into red quinone pigment, then the absorbance at 500 nm of which is measured with a spectrophotometer, thereby determining the PL. […]
# [3] = versus control group, read-out: AI % of diff.
# [4] = versus control group, read-out: HDL-C % of diff.
# [5] = versus control group, read-out: LPO % of diff.
# [6] = versus control group, read-out: PL % of diff.
# [7] = versus control group, read-out: TG % of diff.
Structure (SMILES),"Body weight during feed period, 1st day [1] [g]","Body weight during feed period, 8th day [1] [g]","Body weight during feed period, 15th day [1] [g]","Body weight during feed period, 22nd day [1] [g]","Body weight during feed period, 28th day [1] [g]","Body weight just before blood sampling, 29th day [1] [g]",AI [(TC - HDL-C)/(HDL-C)] [2],HDL-C in serum [2] [mg/dL],LPO in serum [2] [nmol/mL],PL in serum [2] [mg/dL],"change in vivo at 1 % in diet [2, 3] [%]","change in vivo at 1 % in diet [2, 4] [%]","change in vivo at 1 % in diet [2, 5] [%]","change in vivo at 1 % in diet [2, 6] [%]","change in vivo at 1 % in diet [2, 7] [%]",AI Diff. ([2]; versus control group),HDL-C Diff. ([2]; versus control group),LPO Diff. ([2]; versus control group) [nmol/mL],PL Diff. ([2]; versus control group) [mg/dL],TG Diff. ([2]; versus control group) [mg/dL],also measured
"CCCOc1cc(C=C(C)C(=O)OC2CCC34CC35CCC3(C)C(C(C)CCC=C(C)C)CCC3(C)C5CCC4C2(C)C)ccc1O (stereo not drawn) [Example 146, cycloartenyl ester of 4-hydroxy-3-propoxy-α-methylcinnamic acid]",106 ± 5.9,149 ± 11.0,193 ± 17.5,243 ± 15.8,271 ± 20.2,258 ± 19.1,7.479,23.4,2.02,97.6,-65.6,73.3,-28.4,-30.3,-9,-14.28,+9.9 mg/dl,-0.80,-42.5,-5.1,TC in serum [2]: 198.4 mg/dL; TG in serum [2]: 51.4 mg/dL; TC % of diff. ([2]; versus control group): -38.1%; TC Diff. ([2]; versus control group): -108.9 mg/dL
"C=C(CCC(C)C1CCC2(C)C3CCC4C(C)(C)C(OC(=O)C(C)=Cc5cc(N)ccc5OCCC)CCC45CC35CCC12C)C(C)C (stereo not drawn) [Example 197, 24-Methylenecycloartanyl ester of 5-amino-2-propoxy-α-methylcinnamic acid]",104 ± 3.4,142 ± 8.4,188 ± 13.6,239 ± 16.2,268 ± 20.8,257 ± 20.4,7.177,27.1,2.05,115.5,,,,,,,,,,,TC in serum [2]: 221.6 mg/dL; TG in serum [2]: 61.2 mg/dL
"CCCOc1ccc(N)cc1C=C(C)C(=O)OC1CCC23CC24CCC2(C)C(C(C)CCC=C(C)C)CCC2(C)C4CCC3C1(C)C (stereo not drawn) [Example 195, Cycloartenyl ester of 5-amino-2-propoxy-α-methylcinnamic acid]",,,,,,,,,,,-88.3,211,-37.2,-34.2,-28.9,-22.22,+33.7 mg/dl,-1.29,-60.4,-23.5,TG % of diff. (Table 20) [2]: -53.3%; TG Diff. (Table 20) [2]: -223.1 mg/dL; HDL-C rise compared with normal diet group [2]: remarkable rises
"COc1ccc([N+](=O)[O-])cc1C(=O)OC1CCC23CC24CCC2(C)C(C(C)CCC=C(C)C)CCC2(C)C4CCC3C1(C)C (centres unmarked) [Example 170, cycloartenyl ester of 2-methoxy-5-nitrobenzoic acid]",,,,,,,,,,,-74.9,123,-14.1,-28.9,-21.9,-18.83,+19.7 mg/dl,-0.49,-51.1,-17.8,TG % of diff. (Table 20) [2]: -37.5%; TG Diff. (Table 20) [2]: -157.0 mg/dL; HDL-C rise compared with normal diet group [2]: remarkable rises
